Experimental findings from paper PMC8667930, “Novel sulphonamide-bearing methoxyquinazolinone derivatives as anticancer and apoptosis inducers: synthesis, biological evaluation and in silico studies” (Journal of Enzyme Inhibition and Medicinal Chemistry, 2021) are described below.

Data set [1] has as its system A549 cells (non-small cell lung carcinoma). Briefly: MTT cytotoxicity assay, A549. In kind it is cell-based. The settings on record: Homo sapiens, A549, 48 h treatment, mean ± SD (n = 3), NA = no activity. How it is done:
(§1) The MTT assay was performed to test the antiproliferative activity of the synthesised compounds, as per the methodology described by Alqahtani and co-workers[35]. Briefly, A549, HepG2, LoVo, MCF-7 and HUVEC cell lines were seeded in 96-cell culture plates (5 × 10^4 per well) and allowed 24 h for adherence. The cells were then treated with different concentrations of each compound, and 5-fluorouracil was used as a positive control. Following the treatment period (48 h), 10 µL of MTT solution (5 mg/mL) was added to each well and the plates were incubated at 37 °C for 2–4 h. Isopropanol (100 µL) acidified with 0.1 N HCl was added to solubilise the formazan products and the plate was kept on a shaker for 10 min. The optical density of each mixture was measured at 570 nm using an enzyme-linked immunosorbent assay plate reader (ELISA plate reader, Bio-Tek, USA). The concentrations of tested compounds required to inhibit cell growth by 50% (IC50) were calculated using a dose-response curve. Cell survival was calculated using the following equation: Cell survival (%)=(OD of treated sample)/(OD of untreated sample)×100

In data set [2] the test system is HepG2 cells (liver cancer). As to the kind of experiment: MTT cytotoxicity assay, HepG2. Conditions: Homo sapiens, HepG2, 48 h treatment, mean ± SD (n = 3), NA = no activity. In kind it is cell-based. How it is done:
as §1
A general note: Tetrazolium assays rely on reduction of a dye to a coloured formazan, in cell work by metabolically active cells.

Data set [3] relates to caspase-7. As to the kind of experiment: RT-PCR, caspase-7 mRNA expression in MCF-7 cells. In kind it is cell-based, human. The settings on record: MCF-7, 10, 20 and 30 µM, 24 h, compared to control, β-actin internal control. How it is done:
(§2) MCF-7 cells were cultured with different concentrations (10, 20 and 30 µM) of compounds 6 and 10 for 24 h, and the untreated cells were used as a control. The cells were lysed using Trizol reagent (Invitrogen, USA). Total RNA was extracted as per the manufacturer’s instructions. Total RNA was quantitated by taking 2 µL of resuspended RNA on a Nano drop spectrophotometer (Thermo Scientific, USA) and reverse transcribing an equal amount (1 µg) of RNA to make complementary deoxyribonucleic acid (cDNA) using a Super Script VILO cDNA synthesis Kit (Invitrogen), as per the manufacturer’s protocol, in a final volume of 20 µL. The mixture was incubated at 42 °C for 1 h. The generated cDNA (2 µL) was used to assess the mRNA expression of apoptotic genes, including caspase-7, Bax, Bcl-2, and p53. The actin gene was used as an internal control. RT-PCR was performed using 5x Firepol Master Mix ready to load (Solis BioDyne, Tartu, Estonia), as per the manufacturer’s instructions. The program was run as follows: initial denaturation at 95 °C for 5 min, denaturation at 95 °C for 30 s, annealing at 55 °C for 45 s, elongation at 72 °C for 45 s (30 cycles), and final extension at 72 °C for 10 min. The RT-PCR products were electrophoresed on a 1.2% agarose gel containing ethidium bromide, and the gel was imaged on a Licor machine.

The test system of data set [4] is p53. As to the kind of experiment: RT-PCR, p53 mRNA expression in MCF-7 cells. In kind it is cell-based, human. Conditions: MCF-7, 10, 20 and 30 µM, 24 h, compared to control, β-actin internal control. How it is done:
as §2

Data set [5] relates to HUVEC (normal human umbilical vein endothelial cells). Briefly: MTT cytotoxicity assay, HUVEC. The settings on record: Homo sapiens, HUVEC, 48 h treatment, mean ± SD (n = 3), NA = no activity. In kind it is cell-based. How it is done: as §1
For data set [6], the system named is Bcl-2. As to the kind of experiment: Western blot, Bcl-2 protein level in MCF-7 cells. In kind it is cell-based, human. The settings on record: MCF-7, 10, 20 and 30 μM, 24 h, β-actin internal control. How it is done:
(§3) MCF-7 cells were treated with compounds 6 and 10 for 24 h. The cells were then harvested and washed twice with 1x PBS, by adding lysis buffer containing 20 mM Tris (pH 7.5), 150 mM NaCl, 1 mM sodium ethylenediaminetetraacetic acid, 1 mM ethylene glycol-bis (β-aminoethyl ether)-N,N,N′,N′-tetraacetic acid, 1% Triton X100, 1 µg/mL leupeptin, and 100 µM phenylmethylsulphonyl fluoride, to prepare the total cell extract. The lysate was cooled on ice for 1 h and clarified by centrifugation at 13000 rpm at 4 °C for 15 min. The supernatants were collected. The protein concentrations of all the samples were determined using Bradford reagent (BioRad, Hercules, CA, USA). For western blot analysis, 30 − 35 µg of the total protein was loaded onto 10% sodium dodecyl sulphate-polyacrylamide gel and then transferred to a polyvinylidene fluoride membrane. The membrane was blocked with 5% bovine serum albumin in 0.1% Tween-tris-buffered saline (TBST) buffer for 2 h at room temperature, and then washed thrice with TBST. The membrane was incubated with primary antibodies for Bcl-2, p53, caspase7, Bax, and β-actin (1:200, Santa Cruz Biotechnology). […] It was then ready for immunodetection; the membrane was incubated with enhanced chemiluminescence western blotting detection reagents (Amersham, Pharmacia Biotech Inc., Piscataway, NJ, USA) and bands were obtained on exposing to X-ray films (Amersham).
For orientation: A western blot detects proteins with antibodies after separation by electrophoresis.

The subject of data set [7] is LoVo cells (colon cancer). Briefly: MTT cytotoxicity assay, LoVo. The settings on record: Homo sapiens, LoVo, 48 h treatment, mean ± SD (n = 3), NA = no activity. In kind it is cell-based. How it is done: as §1
Data set [8] deals with Bcl-2. As to the kind of experiment: RT-PCR, Bcl-2 mRNA expression in MCF-7 cells. In kind it is cell-based, human. Conditions: MCF-7, 10, 20 and 30 µM, 24 h, compared to control, β-actin internal control. How it is done:
as §2

The subject of data set [9] is Bax. As to the kind of experiment: Western blot, Bax protein level in MCF-7 cells. Conditions: MCF-7, 10, 20 and 30 μM, 24 h, β-actin internal control. In kind it is cell-based, human. How it is done:
as §3

For data set [10], the system named is Bax. As to the kind of experiment: RT-PCR, Bax mRNA expression in MCF-7 cells. In kind it is cell-based, human. Conditions: MCF-7, 10, 20 and 30 µM, 24 h, compared to control, β-actin internal control. How it is done:
as §2

Data set [11] concerns MCF-7 cells. As to the kind of experiment: Annexin V-FITC/PI apoptosis assay by flow cytometry. In kind it is cell-based, human. Conditions: 24 h, average ± SD, control 2.9 ± 0.84% (6) / 3.3 ± 0.28% (10). How it is done: Apoptosis was measured using the Annexin V/PI detection kit (BioLegend, CA, USA), as per the manufacturer’s instructions. Briefly, MCF-7 cells were treated with different concentrations (10, 20 and 30 µM) of compounds 6 and 10 for 24 h. After treatment, the detached and adherent cells were collected, washed, and resuspended in 100 µL of 1X binding buffer. Then, 5 µL of Annexin V and 5 µL of PI were added to the resuspended cells. After incubating for 15 min in the dark, 400 µL of binding buffer was added to each tube and cell samples were analysed using Cytomics FC 500 (Beckman Coulter, Brea, CA, USA). Data collection and analysis were conducted using the CXP software V. 3.0 (Aspect, Phoenix, AZ, USA).

The subject of data set [12] is p53. Briefly: Western blot, p53 protein level in MCF-7 cells. In kind it is cell-based, human. Conditions: MCF-7, 10, 20 and 30 μM, 24 h, β-actin internal control. How it is done:
as §3

Data set [13] deals with MCF-7 cells. As to the kind of experiment: Cell cycle analysis by flow cytometry (propidium iodide). The settings on record: 24 h, average ± SD, control 0.75 ± 0.07%. In kind it is cell-based, human. How it is done: Cell cycle analysis was conducted as previously described by Alqahtani and co-workers[35]. Briefly, MCF-7 cells were seeded in 6-well plates and incubated for 24 h before the addition of various concentrations (10, 20 and 30 µM) of compounds 6 and 10. After incubating for 24 h, the cells were harvested, washed, and resuspended in PBS. The cells were fixed with 70% ethanol at 4 °C for 4 h. The cells were then incubated with RNase (100 µg/mL) and PI (50 µg/mL) for 30 min in the dark. Flow cytometry analysis was performed using Cytomics FC 500 (Beckman Coulter, Brea, CA, USA).
Background: Flow cytometry measures light scatter and fluorescence of single cells or particles in a stream.

For data set [14], the system named is caspase-7. Briefly: Western blot, caspase-7 protein level in MCF-7 cells. In kind it is cell-based, human. Conditions: MCF-7, 10, 20 and 30 μM, 24 h, β-actin internal control. How it is done:
as §3

For data set [15], the system named is MCF-7 cells (human breast cancer cell line). As to the kind of experiment: MTT cytotoxicity assay, MCF-7. In kind it is cell-based. The settings on record: Homo sapiens, MCF7, 48 h treatment, mean ± SD (n = 3), NA = no activity. How it is done: as §1

Structures are written as SMILES.

For `COc1cccc2c(=O)n(-c3ccc(S(N)(=O)=O)cc3)c(SCC(=O)Nc3ccccc3C)nc12` [Compound 6, 2-((8-Methoxy-4-oxo-3-(4-sulphamoylphenyl)-3,4-dihydroquinazolin-2-yl)thio)-N-(o-tolyl) acetamide], the melting point (in general, the temperature of the solid-liquid transition) is more than 350 °C. Also, the IC50 (as a rule, the concentration that inhibits the measured activity by half) in data set [1] was 51.5 ± 1.36 µM. The compound also had an IC50 in data set [2] of 45.6 ± 0.71 µM. Further, the “expression of caspase-7 mRNA” value in data set [3] is “increased”. Besides, the “expression of p53 mRNA” value in data set [4] is reported as “increased”. The IC50 in data set [5] came to 88.27 ± 0.32 µM. In data set [6], the Bcl-2 protein expression result is recorded as “down-regulated”. In data set [7], this compound yielded an IC50 of 22.6 ± 0.86 µM. Also, the “expression of Bcl-2 mRNA” value in data set [8] is “downregulated”. The Bax protein level entry in data set [9] is “markedly increased”. In addition, the “expression of Bax mRNA” value in [10] is reported as “increased”. Moreover, the “proportion of cells in early apoptosis” value in [11] (MCF-7, 10 µM) stood at 7.6 ± 1.4%. For the same compound, the “proportion of cells in early apoptosis” value in data set [11] (MCF-7, 20 µM) is 11.4 ± 1.97%. Moreover, in data set [11] (MCF-7, 30 µM), the “proportion of cells in early apoptosis” value is reported as 18.35 ± 2.4%. Also, the p53 protein level entry in [12] is listed as “markedly increased”. The “proportion of sub-G1 phase cells” value in data set [13] (MCF-7, 10 µM) is recorded as 3.35 ± 0.07%. The “proportion of sub-G1 phase cells” value in [13] (MCF-7, 20 µM) was determined as 7.8 ± 0.14%. Besides, the “proportion of sub-G1 phase cells” value in data set [13] (MCF-7, 30 µM) is reported as 22.85 ± 1.2%. In addition, in [14], the caspase-7 protein level result is on record as “markedly increased”. Also, in data set [15], it took 20.2 ± 0.6 µM to reach half-maximal inhibition (IC50).

As to `CCc1cccc(NC(=O)CSc2nc3c(OC)cccc3c(=O)n2-c2ccc(S(N)(=O)=O)cc2)c1` [Compound 10, N-(3-Ethylphenyl)-2-((8-methoxy-4-oxo-3-(4-sulphamoylphenyl)-3,4-dihydroquinazolin-2-yl)thio) acetamide], the melting point was in the range of 292 to 294 °C. Further, in data set [1], the IC50 came to 48 ± 2.78 µM. Moreover, the IC50 in [2] was 42.3 ± 1.59 µM. For the same compound, the “expression of caspase-7 mRNA” value in data set [3] was “increased”. Besides, in data set [4], the “expression of p53 mRNA” value is on record as “increased”. The compound also came in with an IC50 in [5] of 32 ± 1.47 µM. For the same compound, the Bcl-2 protein expression result in [6] is listed as “down-regulated”. Besides, the IC50 in data set [7] is 22.3 ± 2.26 µM. Besides, the “expression of Bcl-2 mRNA” value in [8] is given as “downregulated”. In addition, the Bax protein level entry in [9] is on record as “markedly increased”. For the same compound, in data set [10], the “expression of Bax mRNA” value is recorded as “increased”. Also, the “proportion of cells in early apoptosis” value in data set [11] (MCF-7, 10 µM) is 9.55 ± 0.2%. Also, in data set [11] (MCF-7, 30 µM), the “proportion of cells in early apoptosis” value amounted to 16 ± 0.84%. The p53 protein level entry in data set [12] was “markedly increased”. Further, in [13] (MCF-7, 10 µM), the “proportion of sub-G1 phase cells” value was determined as 4.3 ± 0.28%. In addition, the “proportion of sub-G1 phase cells” value in data set [13] (MCF-7, 30 µM) turned out to be 30.6 ± 0.07%. Further, in data set [14], the caspase-7 protein level result is on record as “markedly increased”. In [15], the IC50 came to 20.9 ± 0.4 µM.
